Data from US8143408B2, “N-(8-heteroaryltetrahydronaphtalene-2yl) or N-(5-heteroarylchromane-3-yl) carboxamide derivatives for the treatment of pain” (AstraZeneca AB, priority 2007, dated 2012).

Molecular target: T1, Nav1.7 voltage-gated sodium channel (Homo sapiens, UniProt Q15858)
T1 construct: Gene(s) encoding the full-length protein of the voltage-gated sodium channel of interest are cloned and expressed; expressed in transfected cells
Assay: Whole-cell voltage clamp electrophysiology assay
Type: cell-based
Conditions: cells stably expressing the voltage-gated sodium channel of interest
How it was run: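 Cells expressing full-length channel, exposed to drug by integrated pipetting on automated patch-clamp platforms or by microperfusion in conventional whole-cell patch clamp. Channels activated by a voltage protocol depolarising from a defined holding potential; buffers per platform manufacturer.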

T1 sequence (Q15858 whole entry): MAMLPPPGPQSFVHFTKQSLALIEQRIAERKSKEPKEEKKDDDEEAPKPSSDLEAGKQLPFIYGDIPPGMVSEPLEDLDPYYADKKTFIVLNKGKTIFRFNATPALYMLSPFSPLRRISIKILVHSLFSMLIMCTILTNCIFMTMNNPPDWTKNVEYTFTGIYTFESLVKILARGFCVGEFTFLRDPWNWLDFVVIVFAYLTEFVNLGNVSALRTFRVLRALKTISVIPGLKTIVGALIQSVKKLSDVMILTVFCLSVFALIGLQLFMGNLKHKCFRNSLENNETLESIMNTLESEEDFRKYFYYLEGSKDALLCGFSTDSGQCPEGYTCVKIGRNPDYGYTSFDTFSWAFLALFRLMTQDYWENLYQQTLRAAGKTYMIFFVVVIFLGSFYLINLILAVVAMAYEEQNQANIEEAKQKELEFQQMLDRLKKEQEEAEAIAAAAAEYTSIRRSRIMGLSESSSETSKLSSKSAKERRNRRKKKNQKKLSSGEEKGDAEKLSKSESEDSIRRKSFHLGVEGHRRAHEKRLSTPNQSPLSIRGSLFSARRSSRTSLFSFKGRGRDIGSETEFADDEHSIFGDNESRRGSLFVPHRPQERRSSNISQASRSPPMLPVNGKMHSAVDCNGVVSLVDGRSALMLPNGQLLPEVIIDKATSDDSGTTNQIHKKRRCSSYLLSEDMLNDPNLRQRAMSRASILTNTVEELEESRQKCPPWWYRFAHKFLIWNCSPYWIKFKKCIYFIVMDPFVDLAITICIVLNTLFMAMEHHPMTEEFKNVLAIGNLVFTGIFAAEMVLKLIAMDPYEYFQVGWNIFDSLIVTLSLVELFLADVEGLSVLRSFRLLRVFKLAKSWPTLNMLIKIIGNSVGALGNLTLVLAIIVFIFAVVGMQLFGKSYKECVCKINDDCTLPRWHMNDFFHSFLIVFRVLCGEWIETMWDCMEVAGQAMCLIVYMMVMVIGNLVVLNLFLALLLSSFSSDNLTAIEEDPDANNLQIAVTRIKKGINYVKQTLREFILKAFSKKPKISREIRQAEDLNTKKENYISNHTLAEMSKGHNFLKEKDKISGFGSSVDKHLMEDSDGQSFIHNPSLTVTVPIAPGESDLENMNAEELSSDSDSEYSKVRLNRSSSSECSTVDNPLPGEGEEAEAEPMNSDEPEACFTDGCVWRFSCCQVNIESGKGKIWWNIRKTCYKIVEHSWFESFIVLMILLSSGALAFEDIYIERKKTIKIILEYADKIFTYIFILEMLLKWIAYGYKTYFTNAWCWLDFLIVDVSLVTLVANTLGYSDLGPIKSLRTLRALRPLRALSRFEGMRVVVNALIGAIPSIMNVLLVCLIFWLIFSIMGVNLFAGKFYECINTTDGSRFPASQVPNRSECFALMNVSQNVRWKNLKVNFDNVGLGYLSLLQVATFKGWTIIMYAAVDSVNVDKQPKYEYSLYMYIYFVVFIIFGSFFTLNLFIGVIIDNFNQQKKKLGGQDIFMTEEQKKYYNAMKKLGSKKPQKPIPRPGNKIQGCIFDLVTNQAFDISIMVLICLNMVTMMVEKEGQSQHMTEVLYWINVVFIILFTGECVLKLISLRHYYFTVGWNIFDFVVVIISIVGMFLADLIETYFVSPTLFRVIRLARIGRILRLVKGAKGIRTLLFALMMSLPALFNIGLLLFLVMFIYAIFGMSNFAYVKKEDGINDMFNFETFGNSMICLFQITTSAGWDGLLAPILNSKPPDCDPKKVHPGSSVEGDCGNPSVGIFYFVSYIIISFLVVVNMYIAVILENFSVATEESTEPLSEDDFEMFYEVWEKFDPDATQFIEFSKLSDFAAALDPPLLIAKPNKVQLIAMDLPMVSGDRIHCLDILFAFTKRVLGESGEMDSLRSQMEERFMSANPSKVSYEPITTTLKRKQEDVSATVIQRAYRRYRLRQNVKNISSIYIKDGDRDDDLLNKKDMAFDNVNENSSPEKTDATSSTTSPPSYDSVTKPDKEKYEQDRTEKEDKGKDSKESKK

Row | Structure (SMILES) | IC50 [µM]
1 | COCCOc1ccc(C(=O)N[C@@H]2COc3cccc(-c4cnc(C)nc4)c3C2)cn1 [Example 141, 6-(2-methoxyethoxy)-N-[(3S)-5-(2-methylpyrimidin-5-yl)-3,4-dihydro-2H-chromen-3-yl]nicotinamide] | 3.98
2 | COCCOc1ccc(C(=O)N[C@@H]2COc3cccc(-c4ccncc4C)c3C2)cn1 [Example 142, 6-(2-methoxyethoxy)-N-[(3S)-5-(3-methylpyridin-4-yl)-3,4-dihydro-2H-chromen-3-yl]nicotinamide] | 3.16
3 | COCCOc1ccc(C(=O)N[C@@H]2COc3cccc(-c4ccc(F)nc4)c3C2)cn1 [Example 143, N-[(3S)-5-(6-fluoropyridin-3-yl)-3,4-dihydro-2H-chromen-3-yl]-6-(2-methoxyethoxy)nicotinamide] | 1.58
4 | COCCOc1ccc(C(=O)N[C@@H]2CCc3cccc(-c4cccnc4F)c3C2)cn1 [Example 144, N-[(2R)-8-(2-fluoropyridin-3-yl)-1,2,3,4-tetrahydronaphthalen-2-yl]-6-(2-methoxyethoxy)nicotinamide] | 3.16
5 | O=C(N[C@@H]1CCc2cccc(-c3ccnnc3)c2C1)c1ccc(OC2CCCOC2)nc1 (stereo partly drawn) [Example 146, N-[(2R)-8-pyridazin-4-yl-1,2,3,4-tetrahydronaphthalen-2-yl]-6-(tetrahydro-2H-pyran-3-yloxy)nicotinamide] | 7.94
6 | Cc1ccc(-c2cccc3c2C[C@H](NC(=O)c2cnc(OC4CCCOC4)nc2)CC3)cn1 (stereo partly drawn) [Example 147, N-[(2R)-8-(6-methylpyridin-3-yl)-1,2,3,4-tetrahydronaphthalen-2-yl]-2-(tetrahydro-2H-pyran-3-yloxy)pyrimidine-5-carboxamide] | 1.58
7 | COc1ncc(-c2cccc3c2C[C@H](NC(=O)c2cnc(OC4CCOC4)nc2)CO3)cc1F (stereo partly drawn) [Example 149, N-[(3S)-5-(5-fluoro-6-methoxypyridin-3-yl)-3,4-dihydro-2H-chromen-3-yl]-2-(tetrahydrofuran-3-yloxy)pyrimidine-5-carboxamide] | 6.31
8 | CCCCn1ccc(C(=O)N[C@@H]2COc3cccc(-c4cnc(F)c(C)c4)c3C2)cc1=O [Example 152, 1-butyl-N-[(3S)-5-(6-fluoro-5-methylpyridin-3-yl)-3,4-dihydro-2H-chromen-3-yl]-2-oxo-1,2-dihydropyridine-4-carboxamide] | 1.26
9 | COc1ncc(-c2cccc3c2C[C@@H](NC(=O)c2ccc(OC4CCOCC4)nc2)CC3)cn1 [Example 154, N-[(2S)-8-(2-methoxypyrimidin-5-yl)-1,2,3,4-tetrahydronaphthalen-2-yl]-6-(tetrahydro-2H-pyran-4-yloxy)nicotinamide] | 6.31
10 | Cc1ncc(-c2cccc3c2C[C@H](NC(=O)c2ccc(OC4CCOCC4)nc2)CO3)cn1 [Example 155, N-[(3S)-5-(2-methylpyrimidin-5-yl)-3,4-dihydro-2H-chromen-3-yl]-6-(tetrahydro-2H-pyran-4-yloxy)nicotinamide] | 1.26
11 | COc1ncc(-c2cccc3c2C[C@H](NC(=O)c2ccc(OC4CCOCC4)nc2)CC3)cn1 [Example 156, N-[(2R)-8-(2-methoxypyrimidin-5-yl)-1,2,3,4-tetrahydronaphthalen-2-yl]-6-(tetrahydro-2H-pyran-4-yloxy)nicotinamide] | 2
12 | COc1ncc(-c2cccc3c2C[C@H](NC(=O)c2ccc(OC4CCOC4)nc2)CO3)cn1 (stereo partly drawn) [Example 158, N-[(3S)-5-(2-methoxypyrimidin-5-yl)-3,4-dihydro-2H-chromen-3-yl]-6-(tetrahydrofuran-3-yloxy)nicotinamide] | 3.98
13 | Cc1ncc(-c2cccc3c2C[C@H](NC(=O)c2ccc(OC4CCOC4)nc2)CC3)cn1 (stereo partly drawn) [Example 159, N-[(2R)-8-(2-methylpyrimidin-5-yl)-1,2,3,4-tetrahydronaphthalen-2-yl]-6-(tetrahydrofuran-3-yloxy)nicotinamide] | 6.31
14 | Cc1ncc(-c2cccc3c2C[C@H](NC(=O)c2ccc(OC4CCCOC4)nc2)CC3)cn1 (stereo partly drawn) [Example 160, N-[(2R)-8-(2-methylpyrimidin-5-yl)-1,2,3,4-tetrahydronaphthalen-2-yl]-6-(tetrahydro-2H-pyran-3-yloxy)nicotinamide] | 3.16
15 | Cc1ncc(-c2cccc3c2C[C@H](NC(=O)c2ccc(OCC4CCCO4)nc2)CC3)cn1 (stereo partly drawn) [Example 161, N-[(2R)-8-(2-methylpyrimidin-5-yl)-1,2,3,4-tetrahydronaphthalen-2-yl]-6-(tetrahydrofuran-2-ylmethoxy)nicotinamide] | 7.94
16 | CC#CCOc1ccc(C(=O)N[C@@H]2CCc3cccc(-c4cnc(OC)nc4)c3C2)cn1 [Example 168, 6-(but-2-yn-1-yloxy)-N-[(2R)-8-(2-methoxypyrimidin-5-yl)-1,2,3,4-tetrahydronaphthalen-2-yl]nicotinamide] | 6.31
17 | Cc1ncc(-c2cccc3c2C[C@H](NC(=O)c2ccc(C(=O)N(C)CC(F)(F)F)nc2)CO3)cn1 [Example 173, N^2-methyl-N^5-[(3S)-5-(2-methylpyrimidin-5-yl)-3,4-dihydro-2H-chromen-3-yl]-N^2-(2,2,2-trifluoroethyl)pyridine-2,5-dicarboxamide] | 1.58

Now those with a lower IC50, led by results:

Row | IC50 [µM] | Structure (SMILES)
18 | 1 | CCCCn1ccc(C(=O)N[C@@H]2COc3cccc(-c4cnc(OC)nc4)c3C2)cc1=O [Example 150, 1-butyl-N-[(3S)-5-(2-methoxypyrimidin-5-yl)-3,4-dihydro-2H-chromen-3-yl]-2-oxo-1,2-dihydropyridine-4-carboxamide]
19 | 1 | COc1ncc(-c2cccc3c2C[C@H](NC(=O)c2ccc(OC4CCCOC4)nc2)CO3)cn1 (stereo partly drawn) [Example 157, N-[(3S)-5-(2-methoxypyrimidin-5-yl)-3,4-dihydro-2H-chromen-3-yl]-6-(tetrahydro-2H-pyran-3-yloxy)nicotinamide]
20 | 1 | O=C(N[C@@H]1CCc2cccc(-c3cccnc3F)c2C1)c1ccc(OCC2COCCO2)nc1 (stereo partly drawn) [Example 164, 6-(1,4-dioxan-2-ylmethoxy)-N-[(2R)-8-(2-fluoropyridin-3-yl)-1,2,3,4-tetrahydronaphthalen-2-yl]nicotinamide]
21 | 0.794 | CCCCn1ccc(C(=O)N[C@@H]2COc3cccc(-c4cnc(OC)c(F)c4)c3C2)cc1=O [Example 148, 1-butyl-N-[(3S)-5-(5-fluoro-6-methoxypyridin-3-yl)-3,4-dihydro-2H-chromen-3-yl]-2-oxo-1,2-dihydropyridine-4-carboxamide]
22 | 0.631 | Cc1cc(-c2cccc3c2C[C@H](NC(=O)c2cnc(OC4CCCOC4)nc2)CO3)cnc1F (stereo partly drawn) [Example 153, N-[(3S)-5-(6-fluoro-5-methylpyridin-3-yl)-3,4-dihydro-2H-chromen-3-yl]-2-(tetrahydro-2H-pyran-3-yloxy)pyrimidine-5-carboxamide]
23 | 0.501 | COc1ncc(-c2cccc3c2C[C@H](NC(=O)c2ccc(OCCOCC(F)(F)F)nc2)CC3)cn1 [Example 162, N-[(2R)-8-(2-methoxypyrimidin-5-yl)-1,2,3,4-tetrahydronaphthalen-2-yl]-6-[2-(2,2,2-trifluoroethoxy)ethoxy]nicotinamide]
24 | 0.501 | COc1ncc(-c2cccc3c2C[C@H](NC(=O)c2ccc(OCC4COCCO4)nc2)CO3)cc1F (stereo partly drawn) [Example 166, 6-(1,4-dioxan-2-ylmethoxy)-N-[(3S)-5-(5-fluoro-6-methoxypyridin-3-yl)-3,4-dihydro-2H-chromen-3-yl]nicotinamide]
25 | 0.398 | COc1ncc(-c2cccc3c2C[C@H](NC(=O)c2ccc(C(=O)NCCC(F)(F)F)nc2)CC3)cn1 [Example 167, N^5-[(2R)-8-(2-methoxypyrimidin-5-yl)-1,2,3,4-tetrahydronaphthalen-2-yl]-N^2-(3,3,3-trifluoropropyl)pyridine-2,5-dicarboxamide]
26 | 0.251 | Cc1cc(-c2cccc3c2C[C@H](NC(=O)c2ccc(OC4CCCOC4)nc2)CO3)cnc1F (stereo partly drawn) [Example 151, N-[(3S)-5-(6-fluoro-5-methylpyridin-3-yl)-3,4-dihydro-2H-chromen-3-yl]-6-(tetrahydro-2H-pyran-3-yloxy)nicotinamide]
27 | 0.251 | COc1ncc(-c2cccc3c2C[C@H](NC(=O)c2ccc(C(=O)NC4CCC(F)(F)CC4)nc2)CO3)cn1 [Example 170, N^2-(4,4-difluorocyclohexyl)-N^5-[(3S)-5-(2-methoxypyrimidin-5-yl)-3,4-dihydro-2H-chromen-3-yl]pyridine-2,5-dicarboxamide]
28 | 0.2 | O=C(N[C@@H]1CCc2cccc(-c3cccnc3F)c2C1)c1ccc(OC2CCOCC2)nc1 [Example 145, N-[(2R)-8-(2-fluoropyridin-3-yl)-1,2,3,4-tetrahydronaphthalen-2-yl]-6-(tetrahydro-2H-pyran-4-yloxy)nicotinamide]
29 | 0.2 | O=C(N[C@@H]1COc2cccc(-c3ccc4nccn4c3)c2C1)c1ccc(OC2CCOCC2)nc1 [Example 169, N-[(3S)-5-imidazo[1,2-a]pyridin-6-yl-3,4-dihydro-2H-chromen-3-yl]-6-(tetrahydro-2H-pyran-4-yloxy)nicotinamide]
30 | 0.2 | COc1ncc(-c2cccc3c2C[C@H](NC(=O)c2ccnc(OCCOCC(F)(F)F)c2)CO3)cn1 [Example 172, N-[(3S)-5-(2-methoxypyrimidin-5-yl)-3,4-dihydro-2H-chromen-3-yl]-2-[2-(2,2,2-trifluoroethoxy)ethoxy]isonicotinamide]
31 | 0.158 | COc1cc(-c2cccc3c2C[C@H](NC(=O)c2ccc(OCC4COCCO4)nc2)CO3)ccn1 (stereo partly drawn) [Example 165, 6-(1,4-dioxan-2-ylmethoxy)-N-[(3S)-5-(2-methoxypyridin-4-yl)-3,4-dihydro-2H-chromen-3-yl]nicotinamide]
32 | 0.126 | COc1ncc(-c2cccc3c2C[C@H](NC(=O)c2ccc(C(=O)NCCCC(F)(F)F)nc2)CO3)cn1 [Example 171, N^5-[(3S)-5-(2-methoxypyrimidin-5-yl)-3,4-dihydro-2H-chromen-3-yl]-N^2-(4,4,4-trifluorobutyl)pyridine-2,5-dicarboxamide]
33 | 0.0398 | COc1ncc(-c2cccc3c2C[C@H](NC(=O)c2ccc(OCCOCC(F)(F)F)nc2)CO3)cn1 [Example 163, N-[(3S)-5-(2-methoxypyrimidin-5-yl)-3,4-dihydro-2H-chromen-3-yl]-6-[2-(2,2,2-trifluoroethoxy)ethoxy]nicotinamide]
